Assay [1] has as its system CD44. The experiment in a line: CD44 protein by immunoblot in MM cells. The assay is classed as cell-based, human. As to conditions: 24-hr treatment, dose-dependent, vs DMSO control. As to the method:
Reduction of CD44 mRNA and protein persisted for 48 hours after treatment (FIGS. 2C-2D and data not shown).
Cells were harvested by centrifugation, washed with PBS and lysed using buffer composed of 50 mM Tris (pH 7.5), 150 mM NaCl, 10% glycerol, 1.0% NP-40, 0.1% SDS, supplemented with protease and phosphatase inhibitors. Protein concentrations were estimated by Bradford assay and equivalent quantities of the lysates were resolved on 4-20% Tris-HCl SDS-PAGE TGX gels (Bio-Rad). Proteins were transferred to nitrocellulose membranes and stained for acetyl-histone H3 (Milipore), acetyl-histone H4 (Milipore), IGF2BP1 (Cell Signaling Technology), IGF2BP3 (IMP-3, Santa Cruz Biotechnology), CD44 (Santa Cruz Biotechnology), CD48 (Abcam), Drosha (Cell Signaling Technology), or glyceraldehyde 3-phosphate dehydrogenase (GAPDH, Cell Signaling Technology), followed by anti-mouse, or anti-rabbit IgG-HRP (GE Healthcare). Signals were developed using Pierce ECL Western Blotting Substrate (Thermo Fisher Scientific).
A general note: In western blotting, separated proteins are transferred to a membrane and probed.

Assay [2] has as its system CD44 promoter region. Put plainly: CD44 promoter luciferase reporter assay. The assay is classed as cell-based, human. The settings on record: 0.2 μM, 24 hour; MM.1S, U266 and 293T. The protocol: To address the molecular mechanism(s) responsible for downregulation of CD44 gene, the potential role of one or more cis regulatory regions was considered. […] The CD44 3′UTR element was subcloned downstream from the SV40 promoter-driven luciferase gene and transiently transfected the resulting reporter plasmid into MM.1S cells. Incubation of these cells with 0.2 μM AR-42 for 24 hours decreased luciferase activity detecting the activity of the CD44 3′UTR element by 35% as compared to untreated cells (FIG. 5A).
Human CD44 promoter-luciferase reporter gene (CD44P pGL3) was obtained from Addgene (Plasmid 19122). The 3′UTR of CD44 was PCR amplified using following primers:
Hela and 293T cells were transfected with 500 ng of 3′UTR-pGL3-control plasmid and 50 ng of Renilla luciferase expression construct (pRL-TK; Promega), using Lipofectamine 2000 (Invitrogen). After 24 hrs cells were lysed and tested by Dual Luciferase Assay (Promega), according to the manufacturer's instructions. MM.1S cells were transfected with 1.8 μg of pGL3-based luciferase vector and 200 ng of pRL-TK, harvested 24 hrs later and assayed as above.
(In general: Reporter assays use an easily measured gene product as a stand-in for the process of interest.)

Assay [3] concerns CD44. Put plainly: CD44 levels in MM.1S subcutaneous xenograft mice (IHC, serum ELISA). The assay is classed as in vivo. The settings on record: 25 mg/kg, 2 injections. As to the method: To investigate if AR-42 treatment could affect CD44 expression in vivo, a xenograft MM mouse model was created by injecting 1×10^7 viable cells of MM.1S cell line subcutaneously into the right flank of 12 NOD-SCID mice. […] One group of mice (n=4) received intra-peritoneal injections of 25 mg/kg AR-42, while the second group (n=4) was injected with vehicle control (8% DMSO in PBS; Ctrl). Injections were administered once a day (on Monday and Wednesday). Because the anti-tumor activity of AR-42 has been previously reported in preclinical mouse studies, mice were sacrificed 2 days after the second injection in order to avoid tumor size reduction. […] Tumors were excised and used for CD44 immunohistochemical (IHC) studies, while the serum was collected for ELISA assays. […] Thus, AR-42 down-regulates CD44 directly in vivo.
Blood from xenografted mice (0.6 ml/kg) was collected by retro-orbital bleeding and serum was obtained by centrifuging it at 1500×g for 10 min. […] Finally, 100 […] of Stop Reagent was added and absorbance was read on a spectrophotometer at 450 nm. Soluble CD44 (sCD44) content was calculated based on the readings from the standard and sample dilution factor.
Animal experiments were performed according to OSU institutional guidelines. […] The tumor size was measured once a week using a caliper, and the volume was calculated in cubed millimeters (mm3), using the formula L×W2/2. […]
A general note: ELISA stands for enzyme-linked immunosorbent assay.

In assay [4] the test system is pri-miR-9-1, pri-miR-9-2, pri-miR-9-3. Put plainly: pri-miR-9 primary transcripts by qRT-PCR in MM.1S cells. As to conditions: vs controls. The assay is classed as cell-based, human. As to the method: Because human miR-9-5p is encoded by three distinct genomic loci (i.e., primary (pri)-miR-9-1 on chromosome 1 (q22), pri-miR-9-2 on chromosome 5 (q14.3), and pri-miR-9-3 on chromosome 15 (q26.1)), the identity of the locus responsible for miR-9up-regulation in response to AR-42 was investigated.
Quantitative real time-PCR (qRT-PCR) was performed with the TaqMan method (Applied Biosystems), according to the manufacturer's instructions, and analyzed with the 7900HT Sequence Detection System (Applied Biosystems). The appropriate TaqMan probes for mRNA, miRNA, and pri-miRNA quantification were purchased from Applied Biosystems, and all reactions were performed in triplicate. The following probes were used: hsa-miR-9-5p (000583), hsa-mir-9-1 (Hs03303201_pri), hsa-miR-9-2 (Hs03303202_pri), hsa-mir-9-3 (Hs03293595_pri), CD44 (Hs01075861_ml), IGF2BP3 (Hs00559907_g1). Simultaneous quantification of ornithine decarboxylase antizyme 1 (OAZ1), or GAPDH mRNAs were used as a reference for mRNA data normalization, while small endogenous nucleolar RNA U44/U48, or U6 were used for miRNA normalization. The relative expression levels were calculated by the comparative cycle threshold (Ct) method (User Bulletin #2; Applied Biosystems). Expression analyses of pre-miRNA was performed with SYBR green PCR master mix (Applied Biosystems) and normalized for U6 RNA. […]

In the case of `CC(C)[C@H](C(=O)Nc1ccc(C(=O)NO)cc1)c1ccccc1` [AR-42, (S)-N-hydroxy-4-(3-methyl-2-phenylbutanamido)benzamide], the CD44 protein levels result in assay [1] is on record as “consistently downregulated”. Further, the “activity of CD44 promoter region (luciferase)” value in assay [2] was “did not lower”. The “soluble CD44 in serum (ELISA)” value in assay [3] is “decreased levels”. Besides, the “CD44 staining of tumor sections (IHC)” value in assay [3] (vs control group) is reported as “significant lower CD44 staining”. In addition, the “primary transcripts of miR-9-5p” value in assay [4] is “dose dependent changes”.

Values taken from US10022342B2, “Methods and compositions for treating multiple myeloma” (Ohio State Innovation Foundation, priority 2015, dated 2018).
